Legend:
Type in all cases: functional
OVCAR-5 = assay: Growth inhibition of human OVCAR5 cells assessed as cell growth at 3X10'-7 M after 48 hrs by sulforhodamine B assay; conditions: OVCAR-5, 48 h, read-out: Activity
UACC-62 = assay: Growth inhibition of human UACC62 cells assessed as cell growth at 3X10'-7 M after 48 hrs by sulforhodamine B assay; conditions: UACC-62, 48 h, read-out: Activity
M14 = assay: Growth inhibition of human M14 cells assessed as cell growth at 3X10'-7 M after 48 hrs by sulforhodamine B assay; conditions: M14, 48 h, read-out: Activity
SF-539 = assay: Growth inhibition of human SF539 cells assessed as cell growth at 3X10'-7 M after 48 hrs by sulforhodamine B assay; conditions: SF-539, 48 h, read-out: Activity
[1] = Growth inhibition of human HCC2998 cells assessed as cell growth at 3X10'-7 M after 48 hrs by sulforhodamine B assay; conditions: HCC 2998, 48 h, read-out: Activity
NCI-H522 [2] = assay: Growth inhibition of human NCI-H522 cells assessed as cell growth at 3X10'-7 M after 48 hrs by sulforhodamine B assay; conditions: NCI-H522, 48 h, read-out: Activity
HOP-62 [3] = assay: Growth inhibition of human HOP62 cells assessed as cell growth at 3X10'-7 M after 48 hrs by sulforhodamine B assay; conditions: HOP-62, 48 h, read-out: Activity
K562 = assay: Growth inhibition of human K562 cells assessed as cell growth at 3X10'-7 M after 48 hrs by sulforhodamine B assay; conditions: K562, 48 h, read-out: Activity
MDA-MB-468 [4] = assay: Growth inhibition of human MDA-MB-468 cells assessed as cell growth at 3X10'-8 M after 48 hrs by sulforhodamine B assay; conditions: MDA-MB-468, 48 h, read-out: Activity
CAKI-1 = assay: Growth inhibition of human CAKI-1 cells assessed as cell growth at 3X10'-8 M after 48 hrs by sulforhodamine B assay; conditions: CAKI-1, 48 h, read-out: Activity
U-251 = assay: Growth inhibition of human U251 cells assessed as cell growth at 3X10'-8 M after 48 hrs by sulforhodamine B assay; conditions: U-251, 48 h, read-out: Activity
COLO 205 [5] = assay: Growth inhibition of human COLO205 cells assessed as cell growth at 3X10'-8 M after 48 hrs by sulforhodamine B assay; conditions: COLO 205, 48 h, read-out: Activity
NCI-H322M = assay: Growth inhibition of human NCI-H322M cells assessed as cell growth at 3X10'-8 M after 48 hrs by sulforhodamine B assay; conditions: read-out: Activity
HOP-62 [6] = assay: Growth inhibition of human HOP62 cells assessed as cell growth at 3X10'-8 M after 48 hrs by sulforhodamine B assay; conditions: HOP-62, 48 h, read-out: Activity
A549 = assay: Growth inhibition of human A549/ATCC cells assessed as cell growth at 3X10'-8 M after 48 hrs by sulforhodamine B assay; conditions: A549, 48 h, read-out: Activity
BT-549 = assay: Growth inhibition of human BT549 cells assessed as cell growth at 3X10'-9 M after 48 hrs by sulforhodamine B assay; conditions: BT-549, 48 h, read-out: Activity
TK-10 [7] = assay: Growth inhibition of human TK10 cells assessed as cell growth at 3X10'-5 M after 48 hrs by sulforhodamine B assay; conditions: TK-10, 48 h, read-out: Activity
UO-31 = assay: Growth inhibition of human UO31 cells assessed as cell growth at 3X10'-9 M after 48 hrs by sulforhodamine B assay; conditions: UO-31, 48 h, read-out: Activity
OVCAR-8 [8] = assay: Growth inhibition of human OVCAR8 cells assessed as cell growth at 3X10'-9 M after 48 hrs by sulforhodamine B assay; conditions: OVCAR-8, 48 h, read-out: Activity
OVCAR-3 = assay: Growth inhibition of human OVCAR3 cells assessed as cell growth at 3X10'-9 M after 48 hrs by sulforhodamine B assay; conditions: OVCAR-3, 48 h, read-out: Activity
IGROV-1 = assay: Growth inhibition of human IGROV1 cells assessed as cell growth at 3X10'-9 M after 48 hrs by sulforhodamine B assay; conditions: IGROV-1, 48 h, read-out: Activity
SK-MEL-2 = assay: Growth inhibition of human SK-MEL-2 cells assessed as cell growth at 3X10'-5 M after 48 hrs by sulforhodamine B assay; conditions: SK-MEL-2, 48 h, read-out: Activity
SNB-19 = assay: Growth inhibition of human SNB19 cells assessed as cell growth at 3X10'-5 M after 48 hrs by sulforhodamine B assay; conditions: SNB-19, 48 h, read-out: Activity
SF-268 = assay: Growth inhibition of human SF268 cells assessed as cell growth at 3X10'-5 M after 48 hrs by sulforhodamine B assay; conditions: SF-268, 48 h, read-out: Activity
COLO 205 [9] = assay: Growth inhibition of human COLO205 cells assessed as cell growth at 3X10'-5 M after 48 hrs by sulforhodamine B assay; conditions: COLO 205, 48 h, read-out: Activity
NCI-H522 [10] = assay: Growth inhibition of human NCI-H522 cells assessed as cell growth at 3X10'-5 M after 48 hrs by sulforhodamine B assay; conditions: NCI-H522, 48 h, read-out: Activity
RPMI-8226 = assay: Growth inhibition of human RPMI8226 cells assessed as cell growth at 3X10'-5 M after 48 hrs by sulforhodamine B assay; conditions: RPMI-8226, 48 h, read-out: Activity
HL-60(TB) = assay: Growth inhibition of human HL-60(TB) cells assessed as cell growth at 3X10'-5 M after 48 hrs by sulforhodamine B assay; conditions: HL-60, 48 h, read-out: Activity
MDA-MB-468 [11] = assay: Growth inhibition of human MDA-MB-468 cells assessed as cell growth at 3X10'-6 M after 48 hrs by sulforhodamine B assay; conditions: MDA-MB-468, 48 h, read-out: Activity
CCRF-CEM = assay: Growth inhibition of human CCRF-CEM cells assessed as cell growth at 3X10'-5 M after 48 hrs by sulforhodamine B assay; conditions: read-out: Activity
[12] = Growth inhibition of human Hs 578T cells assessed as cell growth at 3X10'-6 M after 48 hrs by sulforhodamine B assay; conditions: read-out: Activity
MDA-MB-231 = assay: Growth inhibition of human MDA-MB-231 cells assessed as cell growth at 3X10'-6 M after 48 hrs by sulforhodamine B assay; conditions: MDA-MB-231, 48 h, read-out: Activity
OVCAR-8 [13] = assay: Growth inhibition of human OVCAR8 cells assessed as cell growth at 3X10'-6 M after 48 hrs by sulforhodamine B assay; conditions: OVCAR-8, 48 h, read-out: Activity
Malme-3M = assay: Growth inhibition of human MALME-3M cells assessed as cell growth at 3X10'-6 M after 48 hrs by sulforhodamine B assay; conditions: read-out: Activity
TK-10 [14] = assay: Growth inhibition of human TK10 cells assessed as cell growth at 3X10'-7 M after 48 hrs by sulforhodamine B assay; conditions: TK-10, 48 h, read-out: Activity

Q: For `COc1cc(-c2nn(-c3cccc(NC(=O)Nc4ccc(Cl)c(C(F)(F)F)c4)c3)cc2-c2ccncc2)ccc1Cl`, which growth at 0.3 µM (OVCAR-5) is on record?
A: Its growth at 0.3 µM is 89%.

Q: What about the growth at 0.3 µM (UACC-62) of the same compound?
A: The growth at 0.3 µM was 89%.

Q: What about the growth at 0.3 µM (M14) of the same compound?
A: The growth at 0.3 µM was 100%.

Q: And the growth at 0.3 µM (SF-539)?
A: Its growth at 0.3 µM is 91%.

Q: What about the growth at 0.3 µM [1] of the same compound?
A: Its growth at 0.3 µM is 101%.

Q: What about the growth at 0.3 µM (NCI-H522 [2]) of the same compound?
A: The growth at 0.3 µM was 100%.

Q: What about the growth at 0.3 µM (HOP-62 [3]) of the same compound?
A: Its growth at 0.3 µM is 93%.

Q: What about the growth at 0.3 µM (K562) of the same compound?
A: Its growth at 0.3 µM is 100%.

Q: And the growth at 0.03 µM (MDA-MB-468 [4])?
A: Its growth at 0.03 µM is 90%.

Q: And the growth at 0.03 µM (CAKI-1)?
A: Its growth at 0.03 µM is 94%.

Q: What about the growth at 0.03 µM (U-251) of the same compound?
A: The growth at 0.03 µM was 94%.

Q: And the growth at 0.03 µM (COLO 205 [5])?
A: The growth at 0.03 µM was 103%.

Q: And the growth at 0.03 µM (NCI-H322M)?
A: The growth at 0.03 µM was 93%.

Q: And the growth at 0.03 µM (HOP-62 [6])?
A: The growth at 0.03 µM was 95%.

Q: What about the growth at 0.03 µM (A549) of the same compound?
A: The growth at 0.03 µM was 94%.

Q: What about the growth at 0.003 µM (BT-549) of the same compound?
A: Its growth at 0.003 µM is 103%.

Q: What about the growth at 30 µM (TK-10 [7]) of the same compound?
A: The growth at 30 µM was -15%.

Q: What about the growth at 0.003 µM (UO-31) of the same compound?
A: The growth at 0.003 µM was 92%.

Q: What about the growth at 0.003 µM (OVCAR-8 [8]) of the same compound?
A: Its growth at 0.003 µM is 105%.

Q: And the growth at 0.003 µM (OVCAR-3)?
A: Its growth at 0.003 µM is 105%.

Q: What about the growth at 0.003 µM (IGROV-1) of the same compound?
A: Its growth at 0.003 µM is 110%.

Q: And the growth at 30 µM (SK-MEL-2)?
A: The growth at 30 µM was -64%.

Q: What about the growth at 30 µM (SNB-19) of the same compound?
A: The growth at 30 µM was -23%.

Q: And the growth at 30 µM (SF-268)?
A: Its growth at 30 µM is -31%.

Q: What about the growth at 30 µM (COLO 205 [9]) of the same compound?
A: Its growth at 30 µM is -94%.

Q: What about the growth at 30 µM (NCI-H522 [10]) of the same compound?
A: Its growth at 30 µM is -21%.

Q: And the growth at 30 µM (RPMI-8226)?
A: The growth at 30 µM was -7%.

Q: What about the growth at 30 µM (HL-60(TB)) of the same compound?
A: The growth at 30 µM was 6%.

Q: And the growth at 3 µM (MDA-MB-468 [11])?
A: The growth at 3 µM was 6%.

Q: What about the growth at 30 µM (CCRF-CEM) of the same compound?
A: The growth at 30 µM was 2%.

Q: And the growth at 3 µM [12]?
A: The growth at 3 µM was 25%.

Q: And the growth at 3 µM (MDA-MB-231)?
A: Its growth at 3 µM is -9%.

Q: What about the growth at 3 µM (OVCAR-8 [13]) of the same compound?
A: The growth at 3 µM was 5%.

Q: And the growth at 3 µM (Malme-3M)?
A: The growth at 3 µM was -16%.

Q: What about the growth at 0.3 µM (TK-10 [14]) of the same compound?
A: Its growth at 0.3 µM is 101%.

Reference: ChEMBL document CHEMBL2440076, “New triarylpyrazoles as broad-spectrum anticancer agents: design, synthesis, and biological evaluation” (Eur J Med Chem, 2013)
